Results from US20240158446A1, “CYCLIC COMPOUND HAVING SELECTIVE INHIBITORY ACTION ON KRAS OVER HRAS AND NRAS” (CHUGAI SEIYAKU KABUSHIKI KAISHA, priority 2021, published 2024).
Read-outs that look alike come from different tables or passages of the source. *1 amine or outer side, *2 acyl side, *3 side chain or, on linkers, in order; H or OH if unused. Where a SMILES comes first, the peptide text is derived from it. Bridges are numbered along the chain shown (N, C = ends). [ ]: non-standard residue; d: D form. The star is where a group is joined. hPhe(3-Cl-4-CF3) = N[C@@H](CCc1ccc(C(F)(F)F)c(Cl)c1)C(=O)O; X27 = O=C([C@H](Cc1ccc(C(F)(F)F)cc1)N(CC1CC1)[*:1])[*:2]; NPrPhe(4-CF3) = CCCN[C@@H](Cc1ccc(C(F)(F)F)cc1)C(=O)O; NMeGly(cPent) = CN[C@H](C(=O)O)C1CCCC1; Hyp = O=C(O)[C@@H]1C[C@@H](O)CN1; NMeD = CN[C@@H](CC(=O)O)C(=O)O; NMeL = CN[C@@H](CC(C)C)C(=O)O; Morpholide = C1CN(*)CCO1; NMeA = CN[C@@H](C)C(=O)O; Ac5c = NC1(C(=O)O)CCCC1; Aze = O=C(O)[C@@H]1CCN1; Ac4c = NC1(C(=O)O)CCC1; Sar = CNCC(=O)O

How the values were obtained:
[1] = target: GDP-bound HRAS wild-type protein (Homo sapiens, UniProt P01112); assay: Binding to HRAS by surface plasmon resonance (SPR), Single Cycle Kinetics; conditions: SPR; for HRAS/KRAS (ratio of KD value for HRAS to KD value for KRAS) / HRAS/KRAS (ratio of KD value with respect to HRAS to KD value with respect to KRAS): GDP-bound HRAS wild-type protein vs GDP-bound KRAS wild-type protein
[2] = target: GDP-bound KRAS wild-type protein (Homo sapiens, UniProt P01116); assay: Binding to KRAS by surface plasmon resonance (SPR), Single Cycle Kinetics; conditions: GDP-bound KRAS wild-type protein, read-out: KRAS KD
[3] = target: GDP-bound NRAS wild-type protein (Homo sapiens, UniProt P01111); assay: Binding to NRAS by surface plasmon resonance (SPR), Single Cycle Kinetics; conditions: SPR; for NRAS/KRAS (ratio of KD value for NRAS to KD value for KRAS) / NRAS/KRAS (ratio of KD value with respect to NRAS to KD value with respect to KRAS): GDP-bound NRAS wild-type protein vs GDP-bound KRAS wild-type protein
[4] = SPR Single Cycle Kinetics, 1:1 binding model

Sequence of GDP-bound NRAS wild-type protein (P01111 whole entry): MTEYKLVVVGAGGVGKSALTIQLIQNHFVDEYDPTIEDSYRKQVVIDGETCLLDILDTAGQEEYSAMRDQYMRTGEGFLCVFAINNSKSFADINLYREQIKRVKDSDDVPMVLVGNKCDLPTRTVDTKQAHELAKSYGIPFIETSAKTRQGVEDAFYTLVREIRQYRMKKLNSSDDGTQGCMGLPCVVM
Sequence of GDP-bound KRAS wild-type protein (P01116 whole entry): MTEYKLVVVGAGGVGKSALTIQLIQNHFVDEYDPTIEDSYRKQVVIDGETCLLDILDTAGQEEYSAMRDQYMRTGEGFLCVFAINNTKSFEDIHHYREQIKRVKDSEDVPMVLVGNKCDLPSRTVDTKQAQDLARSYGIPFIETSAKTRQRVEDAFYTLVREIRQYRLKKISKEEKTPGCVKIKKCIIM
Sequence of GDP-bound HRAS wild-type protein (P01112 whole entry): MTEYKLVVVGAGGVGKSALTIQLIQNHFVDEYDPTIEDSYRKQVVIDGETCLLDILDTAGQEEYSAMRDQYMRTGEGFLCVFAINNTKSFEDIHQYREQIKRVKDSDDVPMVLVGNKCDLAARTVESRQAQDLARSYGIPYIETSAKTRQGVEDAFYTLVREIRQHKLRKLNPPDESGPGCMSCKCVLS

SMILES | Kd [2, 4] [nM] | Kd ([2]; SPR, Single Cycle Kinetics) [nM] | HRAS/KRAS (ratio of KD value for HRAS to KD value for KRAS) [1] | NRAS/KRAS (ratio of KD value for NRAS to KD value for KRAS) [3] | further results
CCO[C@@H]1C[C@H]2C(=O)NC3(CCC3)C(=O)N(C)[C@@H](C(CC)CC)C(=O)N(C)C(C(C)C)CC(=O)N(C)[C@@H](CC3CC3)C(=O)N[C@@H]([C@@H](C)CC)C(=O)N(C)CC(=O)N(C)[C@H]3C/C=C\CCN(C3=O)[C@@H](Cc3ccc(C(F)(F)F)cc3)C(=O)N(C)CC(=O)N[C@@H](CCc3cc(F)c(C(F)(F)F)c(F)c3)C(=O)N2C1 (stereo partly drawn) [PP1595] |  |  |  |  | HRAS/KRAS (ratio of KD value for HRAS to KD value for KRAS) ([1]; KD ratio class): A (a compound having 10 or more and less than 20 is denoted as A); Kd ([2]; SPR, Single Cycle Kinetics, 1:1 binding model): 2.3 nM; NRAS/KRAS (ratio of KD value for NRAS to KD value for KRAS) ([3]; KD ratio class): A (a compound having 10 or more and less than 20 is denoted as A)
CC[C@H](C)[C@@H]1NC(=O)[C@H](CC(C)C)N(C)C(=O)C[C@@H](C(=O)N2CCOCC2)N(C)C(=O)[C@H](C2CCCC2)N(C)C(=O)C2(CCCC2)NC(=O)[C@@H]2CCCN2C(=O)[C@H](CCc2ccc(C(F)(F)F)c(Cl)c2)NC(=O)CN(C)C(=O)[C@H](Cc2ccc(C(F)(F)F)cc2)N(CC2CC2)C(=O)[C@@H]2CCN2C(=O)[C@H](C)N(C)C1=O [PP0108] ([NMeL]I[NMeA][Aze][X27][Sar][hPhe(3-Cl-4-CF3)]P[Ac5c][NMeGly(cPent)][NMeD]-Morpholide; lactam N-11) | 0.2 |  | C (A compound having a KD ratio of 0.1 or more and less than 3 is denoted as C) | C (A compound having a KD ratio of 0.1 or more and less than 3 is denoted as C) | 
CCCN1C(=O)CN(C)C(=O)CNC(=O)[C@H]([C@@H](C)CC)NC(=O)[C@H](CC(C)C)N(C)C(=O)C[C@@H](C(=O)N(C)C)N(C)C(=O)[C@H](C2CCCC2)N(C)C(=O)C2(CCC2)NC(=O)[C@@H]2C[C@@H](OCC)CN2C(=O)[C@H](CCc2ccc(C(F)(F)F)c(Cl)c2)NC(=O)CN(C)C(=O)[C@@H]1Cc1ccc(C(F)(F)F)cc1 [PP0422] ([NMeL]IG[Sar][NPrPhe(4-CF3)][Sar][hPhe(3-Cl-4-CF3)][Hyp](Et)[Ac4c][NMeGly(cPent)][NMeD]-NMe2; lactam N-11) | 0.017 |  |  |  | HRAS/KRAS (ratio of KD value with respect to HRAS to KD value with respect to KRAS) [1]: B (a compound having 3 or more and less than 10 is denoted as B); NRAS/KRAS (ratio of KD value with respect to NRAS to KD value with respect to KRAS) [3]: B (a compound having 3 or more and less than 10 is denoted as B)
CCCN1C(=O)CN(C)C(=O)CNC(=O)[C@H]([C@@H](C)CC)NC(=O)[C@H](CC(C)C)N(C)C(=O)C[C@@H](C(=O)N(C)C)N(C)C(=O)[C@H](C2CCCC2)N(C)C(=O)C2(CCC2)NC(=O)[C@@H]2CCCN2C(=O)[C@H](CCc2ccc(C(F)(F)F)c(Cl)c2)NC(=O)CN(C)C(=O)[C@@H]1Cc1ccc(C(F)(F)F)cc1 [PP0418] ([NMeL]IG[Sar][NPrPhe(4-CF3)][Sar][hPhe(3-Cl-4-CF3)]P[Ac4c][NMeGly(cPent)][NMeD]-NMe2; lactam N-11) | 0.074 |  |  |  | HRAS/KRAS (ratio of KD value with respect to HRAS to KD value with respect to KRAS) [1]: C (A compound having a KD ratio of 0.1 or more and less than 3 is denoted as C); NRAS/KRAS (ratio of KD value with respect to NRAS to KD value with respect to KRAS) [3]: B (a compound having 3 or more and less than 10 is denoted as B)

Second part, led by results:

Kd [2, 4] [nM] | Kd ([2]; SPR, Single Cycle Kinetics) [nM] | SMILES | HRAS/KRAS (ratio of KD value for HRAS to KD value for KRAS) [1] | NRAS/KRAS (ratio of KD value for NRAS to KD value for KRAS) [3] | further results
 | 0.21 | CCCOC[C@H]1C(=O)N[C@@H]([C@@H](C)CC)C(=O)N(C)CC(=O)N(C)[C@H]2C/C=C\CCN(C2=O)[C@@H](Cc2ccc(C(F)(F)F)cc2)C(=O)N(C)CC(=O)N[C@@H](CCc2cc(F)c(C(F)(F)F)c(F)c2)C(=O)N2C[C@@H](C)C[C@H]2C(=O)NC2(CC(C)(C)C2)C(=O)N(C)[C@@H](C2CCCC2)C(=O)N(C)[C@H](C(=O)N(C)CC)CC(=O)N1C [PP2043] | A (a compound having 10 or more and less than 20 is denoted as A) | A (a compound having 10 or more and less than 20 is denoted as A) | 
 | 0.41 | CCO[C@@H]1C[C@H]2C(=O)NC3(CC(C)(C)C3)C(=O)N(C)[C@@H](C(CC)CC)C(=O)N(C)[C@H](C(=O)N3CCCC3)CC(=O)N(C)[C@@H](C)C(=O)N[C@@H]([C@@H](C)CC)C(=O)N(C)CC(=O)N(C)[C@H]3C/C=C\CCN(C3=O)[C@@H](Cc3ccc(C(F)(F)F)cc3)C(=O)N(C)CC(=O)N[C@@H](CCc3ccc(C(F)(F)F)c(OC)c3)C(=O)N2C1 [PP2163] | A (a compound having 10 or more and less than 20 is denoted as A) | A (a compound having 10 or more and less than 20 is denoted as A) | 
 | 0.087 | CCC[C@H]1C(=O)N[C@@H](C2CCCC2)C(=O)N(C)CC(=O)N(C)[C@H]2C/C=C\CCN(C2=O)[C@@H](Cc2ccc(C)cc2)C(=O)N(C)CC(=O)N[C@@H](CCc2cc(F)c(C(F)(F)F)c(F)c2)C(=O)N2C[C@H](OCC)C[C@H]2C(=O)NC2(CC(C)(C)C2)C(=O)N(C)[C@@H](CC(C)(C)C)C(=O)N(C)[C@H](C(=O)N(C)C)CC(=O)N1C [PP2989] | A (a compound having 10 or more and less than 20 is denoted as A) | AA (a compound having 20 or more is denoted as AA) | 
 | 0.025 | CCO[C@@H]1C[C@H]2C(=O)NC3(CC(C)(C)C3)C(=O)N(C)[C@@H](C3CCCC3)C(=O)N(C)[C@H](C(=O)N(C)C)CC(=O)N(C)[C@H]3CCCC/C=C/c4ccc(cc4)C[C@@H](C(=O)N(C)CC(=O)N[C@@H](CCc4cc(F)c(C(F)(F)F)c(F)c4)C(=O)N2C1)N1CC/C=C\C[C@@H](C1=O)N(C)C(=O)CN(C)C(=O)[C@H]([C@@H](C)CC)NC3=O [PP1831] |  |  | HRAS/KRAS (KD ratio) ([1]; ratio of KD for GDP-bound HRAS wild-type protein to KD for KRAS): A (a compound having 10 or more and less than 20 is denoted as A); NRAS/KRAS (KD ratio) ([3]; ratio of KD for GDP-bound NRAS wild-type protein to KD for KRAS): A (a compound having 10 or more and less than 20 is denoted as A)
